The nature of this assay: Type B (low volume, EC formulation, track sprayer 200 L/ha) assay, leaf blotch of wheat, SEPTTR field isolate (FI SEPTTR). In kind it is in vivo, Mycosphaerella graminicola on wheat plants (variety Yuma). To be noted: Zymoseptoria tritici, 72 h. As for the experimental part: Example A: Evaluation of Fungicidal Activity: Leaf Blotch of Wheat (Mycosphaerella graminicola; Anamorph: Septoria tritici; Bayer Code SEPTTR)
For Type A assays, technical grades of the experimental fungicides in Table 4 below were dissolved in acetone, and then mixed with nine volumes of water containing 110 ppm Triton X-100. The fungicide solutions were applied onto wheat seedlings using an automated booth sprayer. For Type B assays, emulsifiable concentrate (EC) formulations of technical grades of the experimental fungicides in Table 4 below were prepared at 10% (w/v), and then mixed with 150 volumes of 0.1% Trycol 5941. These solutions were applied onto wheat seedlings using an automated track sprayer at 200 L/ha. All sprayed plants were allowed to air dry prior to further handling.
Wheat plants (variety Yuma) were grown from seed in a greenhouse in 50% mineral soil/50% soil-less Metro mix until the first leaf was fully emerged, with 7-10 seedlings per pot. Prior to or after application of experimental fungicides, plants were inoculated either with spores of a standard laboratory SEPTTR isolate (SI SEPTTR) or with spores from a SEPTTR field isolate collected from Wellsbourne, England in 2012 (FI SEPTTR). After inoculation the plants were kept for 3 days at 20° C. in 100% relative humidity (one day in a dark dew chamber followed by two days in a lighted dew chamber). Plants were then transferred to a 20° C. greenhouse for disease development. When disease symptoms were fully expressed on untreated plants, infection levels on treated plants were assessed on a scale of 0 to 100 percent disease severity. Percent disease control was calculated using the ratio of disease severity on treated plants relative to untreated plants.

Where [1] appears, read: field isolate, low volume EC, 100 g/ha, 3 Day Curative, wheat (Yuma), read-out: Disease Control, FI SEPTTR Type B Assay (100 g/ha) 3 DC.
Where [2] appears, read: field isolate, low volume EC, 100 g/ha, 3 Day Protectant, wheat (Yuma), read-out: Disease Control, FI SEPTTR Type B Assay (100 g/ha) 3 DP.
Where [3] appears, read: SEPTTR field isolate, low volume Type B assay, 100 g/ha, 3 Day Curative, wheat leaf blotch, read-out: Disease Control, FI SEPTTR Type B Assay (100 g/ha) 3 DC.
Setting [4] is: SEPTTR field isolate, low volume Type B assay, 100 g/ha, 3 Day Protectant, wheat leaf blotch, read-out: Disease Control, FI SEPTTR Type B Assay (100 g/ha) 3 DP.

Like-named read-outs stand apart in the source and are kept apart here.

In patent publication US10167300B2, “Metalloenzyme inhibitor compounds as fungicides” (priority 2014, dated 2019) one finds pest or weed control data, which are given here for 39 compounds.

Turning to `COc1ncncc1C(O)(c1ccc(-c2ccc(OCC(F)(F)F)cn2)cn1)C(C)(C)C` (stereo not drawn) [Compound 186], the pest or weed control at 100 g/ha lay within 40 to 59% under setting [1] and 80 to 100% under setting [2].
For `COc1ncncc1C(O)(c1ccc(-c2ccc(OCC(F)(F)F)nc2)cn1)C(C)(C)C` (stereo not drawn) [Compound 218] the same measures were under 40% and 80 to 100%.
In the case of `C#CCOC(c1cncnc1)(c1ccc(-c2ccc(OC(F)(F)F)cc2F)cn1)C1CC1` (stereo not drawn) [Compound 250], the pest or weed control at 100 g/ha by setting is: under setting [1], under 40%; under setting [2], 80 to 100%.
Regarding `CCC(O)(c1cncnc1)c1ccc(-c2ccc(OC(F)(F)F)cc2F)cn1` (stereo not drawn) [Compound 205], the pest or weed control at 100 g/ha by setting is: under setting [1], 40 to 59%; under setting [2], 80 to 100%.
For `COC(c1cncnc1)(c1ccc(-c2ccc(OC(F)(F)F)cc2F)cn1)C(C)C` (stereo not drawn) [Compound 249] the same measures were 60 to 79% and 80 to 100%.
As to `CC(C)(C#N)c1ccc(-c2ccc(C(O)(c3cncnc3)C(C)(C)C)nc2)c(Cl)c1` (stereo not drawn) [Compound 265], the pest or weed control at 100 g/ha under setting [3] was in the range of 80 to 100% and the pest or weed control at 100 g/ha under setting [4] lay in the range of 80 to 100%.
On to `C#CCOC(c1cncnc1)(c1ccc(-c2ccc(OC(F)(F)F)cc2)cn1)C1CC1` (stereo not drawn) [Compound 255], for which the pest or weed control at 100 g/ha under setting [1] was under 40% and the pest or weed control at 100 g/ha under setting [2] lay within 60 to 79%.
As for `CCOC(c1cncnc1)(c1ccc(-c2ccc(OC(F)(F)F)cc2)cn1)C1CC1` (stereo not drawn) [Compound 232], the pest or weed control at 100 g/ha is under 40% under setting [1] and 60 to 79% under setting [2].
As for `CC(C)(C)C(O)(c1ccc(-c2ccc(OC(F)(F)F)cc2)cn1)c1cccnc1Cl` (stereo not drawn) [Compound 235], the pest or weed control at 100 g/ha was 60 to 79% under setting [1] and 80 to 100% under setting [2].
`CC(C)(C#N)c1ccc(-c2ccc(C(O)(c3cncc(F)c3)C(C)(C)C)nc2)cc1` (stereo not drawn) [Compound 262]: the pest or weed control at 100 g/ha by setting is: under setting [3], 80 to 100%; under setting [4], 80 to 100%.
As to `CCOC(C)(c1cncnc1)c1ccc(-c2ccc(OC(F)(F)F)cc2)cn1` (stereo not drawn) [Compound 177], the pest or weed control at 100 g/ha by setting is: under setting [1], under 40%; under setting [2], 60 to 79%.
Turning to `CC#CC(OC)(c1cncnc1)c1ccc(-c2ccc(OC(F)(F)F)cc2F)cn1` (stereo not drawn) [Compound 182], the pest or weed control at 100 g/ha runs as follows: under setting [1], under 40%; under setting [2], 60 to 79%.
`CC(C)(C)C(O)(Cc1cccnc1)c1ccc(-c2ccc(OCC(F)(F)F)nc2)cn1` (stereo not drawn) [Compound 234]: the pest or weed control at 100 g/ha reads like this: under setting [1], 40 to 59%; under setting [2], 60 to 79%.
As to `COc1ncncc1C(O)(c1ccc(-c2ccc(C3(C#N)CC3)cc2F)cn1)C(C)(C)C` (stereo not drawn) [Compound 233], the pest or weed control at 100 g/ha fell in the range of 80 to 100% under setting [1] and 80 to 100% under setting [2].
Turning to `CO/N=C(/C)c1ccc(-c2ccc(C(O)(c3cncnc3)C(C)(C)C)nc2)cc1` (stereo not drawn) [Compound 132, (Z)-1-(4-(6-(1-hydroxy-2,2-dimethyl-1-(pyrimidin-5-yl)propyl)pyridin-3-yl)phenyl)ethanone O-methyl oxime], the pest or weed control at 100 g/ha under setting [1] fell in the range of 80 to 100% and the pest or weed control at 100 g/ha under setting [2] fell in the range of 80 to 100%.
`CC#CC(OCC)(c1cncnc1)c1ccc(-c2ccc(OC(F)(F)F)cc2)cn1` (stereo not drawn) [Compound 242]: the pest or weed control at 100 g/ha is, setting by setting: under setting [1], under 40%; under setting [2], 40 to 59%.
For `COc1ncncc1C(O)(c1ccc(-c2ccc(OC(F)F)cc2)cn1)C(C)(C)C` (stereo not drawn) [Compound 273], the pest or weed control at 100 g/ha under setting [3] is under 40% and the pest or weed control at 100 g/ha under setting [4] lay within 80 to 100%.
With `CC(C)(C)c1ccc(-c2ccc(C(O)(Cc3cncnc3)C(C)(C)C)nc2)cc1` (stereo not drawn) [Compound 181], the pest or weed control at 100 g/ha under setting [1] was under 40% and the pest or weed control at 100 g/ha under setting [2] was in the range of 60 to 79%.
For `CC(C)(C)C(O)(c1cncnc1)c1ccc(-c2ccc(F)cc2Cl)cn1` (stereo not drawn) [Compound 166] the same measures were 80 to 100% and 80 to 100%.
For `CC(C)(C)C(O)(c1ccc(-c2ccc(OC(F)(F)F)cc2)cn1)c1cnccn1` (stereo not drawn) [Compound 207] the same measures were 40 to 59% and 60 to 79%.
On to `CCOC(c1cncnc1)(c1ccc(-c2ccc(OC(F)(F)F)cc2F)cn1)C(C)C` (stereo not drawn) [Compound 176], for which the pest or weed control at 100 g/ha runs as follows: under setting [1], under 40%; under setting [2], 60 to 79%.
For `C#CCOC(C#CC)(c1cncnc1)c1ccc(-c2ccc(OC(F)(F)F)cc2F)cn1` (stereo not drawn) [Compound 248] the same measures were under 40% and 40 to 59%.
As for `COc1cc(C(C)(C)C#N)ccc1-c1ccc(C(O)(c2cncnc2)C(C)(C)C)nc1` (stereo not drawn) [Compound 263], the pest or weed control at 100 g/ha runs as follows: under setting [3], 80 to 100%; under setting [4], 80 to 100%.
Regarding `COC(C)(c1cncnc1)c1ccc(-c2ccc(OC(F)(F)F)cc2F)cn1` (stereo not drawn) [Compound 206], the pest or weed control at 100 g/ha runs as follows: under setting [1], under 40%; under setting [2], 40 to 59%.
The matching figures for `C#CCOC(CC)(c1cncnc1)c1ccc(-c2ccc(OC(F)(F)F)cc2F)cn1` (stereo not drawn) [Compound 238]: 60 to 79% and under 40%.
For `Cc1cc(C(C)(C)C#N)ccc1-c1ccc(C(O)(c2cncnc2)C(C)(C)C)nc1` (stereo not drawn) [Compound 223] the same measures were 80 to 100% and 80 to 100%.
The matching figures for `CC(C)(C)C(O)(c1cncnc1)c1ccc(-c2ccc(C3(C#N)CCC3)cc2F)cn1` (stereo not drawn) [Compound 251]: 80 to 100% and 80 to 100%.
Regarding `CC(C)(C)C(O)(c1ccc(-c2ccc(OC(F)(F)F)cn2)cn1)c1cnccn1` (stereo not drawn) [Compound 174], the pest or weed control at 100 g/ha is, setting by setting: under setting [1], 60 to 79%; under setting [2], 80 to 100%.
Turning to `CC(C)(C)C(O)(c1ccc(-c2ccc(OC(F)(F)F)cc2F)cn1)c1cnccn1` (stereo not drawn) [Compound 271], the pest or weed control at 100 g/ha reads like this: under setting [3], under 40%; under setting [4], 80 to 100%.
Consider `CC(C)(C)C(O)(c1ccc(-c2ccc(C3(C#N)CC3)cc2)cn1)c1cnccn1` (stereo not drawn) [Compound 229], for which the pest or weed control at 100 g/ha runs as follows: under setting [1], 60 to 79%; under setting [2], 60 to 79%.
With `C#CCOC(c1cncnc1)(c1ccc(-c2ccc(OC(F)(F)F)cc2)cn1)C(C)(C)C` (stereo not drawn) [Compound 197], the pest or weed control at 100 g/ha under setting [1] was under 40% and the pest or weed control at 100 g/ha under setting [2] was 80 to 100%.
With `CC(C)(C)C(O)(c1ccc(-c2ccc(OCC(F)(F)F)cc2)cn1)c1cnccn1` (stereo not drawn) [Compound 225], the pest or weed control at 100 g/ha reads like this: under setting [1], 80 to 100%; under setting [2], 60 to 79%.
`CC(C)(C)C(O)(c1ccc(-c2ccc(OCC(F)(F)F)nc2)cn1)c1cnccn1` (stereo not drawn) [Compound 180]: the pest or weed control at 100 g/ha reads like this: under setting [1], 60 to 79%; under setting [2], 40 to 59%.
`CCC(C#N)(CC)c1ccc(-c2ccc(C(O)(c3cncnc3)C(C)(C)C)nc2)c(F)c1` (stereo not drawn) [Compound 268]: the pest or weed control at 100 g/ha runs as follows: under setting [3], 80 to 100%; under setting [4], 80 to 100%.
For the compound `CC(C)(C#N)c1ccc(-c2ccc(C(O)(c3cncnc3)C(C)(C)C)nc2)c(C#N)c1` (stereo not drawn) [Compound 175, 5-(2-cyanopropan-2-yl)-2-(6-(1-hydroxy-2,2-dimethyl-1-(pyrimidin-5-yl)propyl)pyridin-3-yl)benzonitrile], the pest or weed control at 100 g/ha under setting [1] was in the range of 80 to 100% and the pest or weed control at 100 g/ha under setting [2] lay in the range of 80 to 100%.
For `CSc1cc(C(C)(C)C#N)ccc1-c1ccc(C(O)(c2cncnc2)C(C)(C)C)nc1` (stereo not drawn) [Compound 216, 2-(4-(6-(1-hydroxy-2,2-dimethyl-1-(pyrimidin-5-yl)propyl)pyridin-3-yl)-3-(methylthio)phenyl)-2-methylpropanenitrile], the pest or weed control at 100 g/ha was in the range of 80 to 100% under setting [1] and 80 to 100% under setting [2].
For the compound `CC(C)(C#N)c1ccc(-c2ccc(C(O[Si](C)(C)C)(c3cncnc3)C(C)(C)C)nc2)cc1` (stereo not drawn) [Compound 259], the pest or weed control at 100 g/ha fell in the range of 60 to 79% (read-out: Disease Control, FI SEPTTR Type B Assay (100 g/ha) 3 DC) and 80 to 100% (read-out: Disease Control, FI SEPTTR Type B Assay (100 g/ha) 3 DP).
For `CC(C)(C#N)c1ccc(-c2ccc(C(O)(c3cnccn3)C(C)(C)C)nc2)cc1` (stereo not drawn) [Compound 188], the pest or weed control at 100 g/ha lay within 60 to 79% under setting [1] and 80 to 100% under setting [2].
Take `COC(c1cncnc1)(c1ccc(-c2ccc(C(C)(C)C#N)cc2C)cn1)C(C)(C)C` (stereo not drawn) [Compound 267]: the pest or weed control at 100 g/ha lay within 60 to 79% under setting [3] and 80 to 100% under setting [4].
